In ChEMBL document CHEMBL3769303, “Discovery of membrane active benzimidazole quinolones-based topoisomerase inhibitors as potential DNA-binding antimicrobial agents” (Eur J Med Chem, 2016):
Values after ≈ are worked out from the molar mass of the structure shown. Active and inactive are the calls of the source. The rule behind the calls is not given here.

Columns and labels:
Staphylococcus aureus [1] = test: Antibacterial activity against Staphylococcus aureus ATCC 25923 by micro broth dilution method; format: functional
[2] = Antibacterial activity against Bacillus proteus ATCC 13315 by micro broth dilution method; format: functional
Micrococcus luteus [3] = test: Antibacterial activity against Micrococcus luteus ATCC 4698 by micro broth dilution method; format: functional; details: NCTC 2665
Bacillus spizizenii = test: Antibacterial activity against Bacillus subtilis ATCC 6633 by micro broth dilution method; format: functional
Calf thymus DNA = test: Binding affinity to calf thymus DNA by UV-visible spectroscopy; format: nucleic-acid assay; details: Bos taurus
Escherichia coli [4] = test: Antibacterial activity against Escherichia coli DH52 by micro broth dilution method; format: functional
Staphylococcus aureus [5] = test: Antibacterial activity against methicillin-resistant Staphylococcus aureus N315 at MIC measured after 6 passages; format: functional, organism-based
Salmonella enterica [6] = test: Antibacterial activity against Salmonella enterica ATCC 14028 by micro broth dilution method; format: functional
Staphylococcus aureus [7] = test: Antibacterial activity against methicillin-resistant Staphylococcus aureus N315 by micro broth dilution method; format: functional
Pseudomonas aeruginosa = test: Antibacterial activity against Pseudomonas aeruginosa ATCC 27853 by micro broth dilution method; format: functional
Shigella dysenteriae = test: Antibacterial activity against Shigella dysenteriae by micro broth dilution method; format: functional
Escherichia coli [8] = test: Antibacterial activity against Escherichia coli JM109 by micro broth dilution method; format: functional
Aspergillus flavus = test: Antifungal activity against Aspergillus flavus ATCC 204304 after 24 hrs by micro broth dilution method; format: functional; details: ATCC 204304, 24 h
Staphylococcus aureus [9] = test: Antibiofilm activity against methicillin-resistant Staphylococcus aureus N315 after 24 hrs by crystal violet staining-based plate reader assay; format: functional, organism-based; details: N315, 24 h
Escherichia coli [10] = test: Antibacterial activity against Escherichia coli DH52 assessed as membrane permeabilization at 12 times MIC measured for 15 mins by propidium iodide staining-based method; format: functional, organism-based
Staphylococcus aureus [11] = test: Antibiofilm activity against methicillin-resistant Staphylococcus aureus N315 assessed as log10 CFU count at 0.125 ug/ml after 24 hrs (reference value: 13.6 log10 CFU/ml); format: functional
Micrococcus luteus [12] = test: Potency index, ratio of ciprofloxacin MIC to compound MIC for Micrococcus luteus ATCC 4698; format: functional, NCTC 2665
Salmonella enterica [13] = test: Potency index, ratio of chloromycin MIC to compound MIC for Salmonella enterica ATCC 14028; format: functional
Escherichia coli [14] = test: Antibiofilm activity against Escherichia coli DH52 assessed as log10 CFU count at 4 ug/ml after 24 hrs (reference value: 16.2 log10CFU/ml); format: functional
Saccharomyces cerevisiae = test: Antifungal activity against Saccharomyces cerevisiae ATCC 9763 after 24 hrs by micro broth dilution method; format: functional; details: ATCC 9763, 24 h
Escherichia coli [15] = test: Antibiofilm activity against Escherichia coli DH52 assessed as log10 CFU count at 2 ug/ml after 24 hrs (reference value: 16.2 log10CFU/ml); format: functional
Bacillus [16] = test: Potency index, ratio of clinafloxacin MIC to compound MIC for Bacillus proteus ATCC 13315; format: functional
Staphylococcus aureus [17] = test: Antibacterial activity against methicillin-resistant Staphylococcus aureus N315 assessed as membrane permeabilization at 12 times MIC measured for 15 mins by propidium iodide staining-based method; format: functional, organism-based
Candida albicans = test: Antifungal activity against Candida albicans ATCC 10231 after 24 hrs by micro broth dilution method; format: functional; details: ATCC 10231, 24 h
Staphylococcus aureus [18] = test: Antibiofilm activity against methicillin-resistant Staphylococcus aureus N315 assessed as log10 CFU count at 2 ug/ml after 24 hrs (reference value: 13.6 log10 CFU/ml); format: functional
Staphylococcus aureus [19] = test: Antibiofilm activity against methicillin-resistant Staphylococcus aureus N315 assessed as log10 CFU count at 1 ug/ml after 24 hrs (reference value: 13.6 log10 CFU/ml); format: functional
Salmonella enterica [20] = test: Potency index, ratio of clinafloxacin MIC to compound MIC for Salmonella enterica ATCC 14028; format: functional
Staphylococcus aureus [21] = test: Bactericidal activity against methicillin-resistant Staphylococcus aureus N315 assessed as reduction in log10 CFU count at 6 times MIC after 24 hrs by time kill assay; format: functional
Staphylococcus aureus [22] = test: Antibiofilm activity against methicillin-resistant Staphylococcus aureus N315 assessed as reduction in log10 CFU count after 24 hrs; format: functional, organism-based; details: N315, 24 h
Escherichia coli [23] = test: Antibiofilm activity against Escherichia coli DH52 assessed as reduction in log10 CFU count after 48 hrs; format: functional, organism-based; details: DH52, 48 h
Bacillus [24] = test: Potency index, ratio of chloromycin MIC to compound MIC for Bacillus proteus ATCC 13315; format: functional
HEK293 = test: Cytotoxicity against HEK293 cells after 24 hrs by CCK8 assay; format: cell-based; details: Homo sapiens, HEK293, 24 h
Salmonella enterica [25] = test: Potency index, ratio of norfloxacin MIC to compound MIC for Salmonella enterica ATCC 14028; format: functional
Escherichia coli [26] = test: Antibiofilm activity against Escherichia coli DH52 assessed as log10 CFU count at 0.25 ug/ml after 24 hrs (reference value: 16.2 log10CFU/ml); format: functional
[27] = Antifungal activity against Candida mycoderma ATCC 9888 after 24 hrs by micro broth dilution method; format: functional; details: Candida vini
Escherichia coli [28] = test: Antibiofilm activity against Escherichia coli DH52 after 24 hrs by crystal violet staining-based plate reader assay; format: functional, organism-based; details: DH52, 24 h
Escherichia coli [29] = test: Antibiofilm activity against Escherichia coli DH52 assessed as log10 CFU count at 0.5 ug/ml after 24 hrs (reference value: 16.2 log10CFU/ml); format: functional
Micrococcus luteus [30] = test: Potency index, ratio of clinafloxacin MIC to compound MIC for Micrococcus luteus ATCC 4698; format: functional, NCTC 2665
Micrococcus luteus [31] = test: Potency index, ratio of chloromycin MIC to compound MIC for Micrococcus luteus ATCC 4698; format: functional, NCTC 2665
Cyberlindnera jadinii = test: Antifungal activity against Candida utilis ATCC 9950 after 24 hrs by micro broth dilution method; format: functional; details: Williopsis jadinii, ATCC 9950, 24 h
Staphylococcus aureus [32] = test: Antibacterial activity against methicillin-resistant Staphylococcus aureus N315 measured after 12 passages; format: functional
Staphylococcus aureus [33] = test: Antibiofilm activity against methicillin-resistant Staphylococcus aureus N315 assessed as log10 CFU count at 0.25 ug/ml after 24 hrs (reference value: 13.6 log10 CFU/ml); format: functional
Escherichia coli [34] = test: Inhibition of Escherichia coli topoisomerase 4 assessed as DNA relaxation using PUC19T-DNA at 10 uM after 2 hrs by ehtidium bromide staining-based agarose gel electrophoresis
Micrococcus luteus [35] = test: Potency index, ratio of norfloxacin MIC to compound MIC for Micrococcus luteus ATCC 4698; format: functional, NCTC 2665

CCn1cc(C(=O)O)c(=O)c2cc(F)c(N3CCNCC3)cc21 [NORFLOXACIN]
MIC (Staphylococcus aureus [1]): 2 µg/mL (≈ 6.26 µM)
MIC [2]: 8 µg/mL (≈ 25.1 µM)
MIC (Micrococcus luteus [3]): 2 µg/mL (≈ 6.26 µM)
MIC (Bacillus spizizenii): 4 µg/mL (≈ 12.5 µM)
Activity (Calf thymus DNA): Active
MIC (Escherichia coli [4]): 1 µg/mL (≈ 3.13 µM)
Activity (Staphylococcus aureus [5]): inactive
MIC (Salmonella enterica [6]): 4 µg/mL (≈ 12.5 µM)
MIC (Staphylococcus aureus [7]): 8 µg/mL (≈ 25.1 µM)
MIC (Pseudomonas aeruginosa): 16 µg/mL (≈ 50.1 µM)
MIC (Shigella dysenteriae): 16 µg/mL (≈ 50.1 µM)
MIC (Escherichia coli [8]): 1 µg/mL (≈ 3.13 µM)

O=C(O)c1cn(C2CC2)c2cc(N3CCN(Cc4nc5ccccc5n4Cc4ccc(Cl)cc4Cl)CC3)c(F)cc2c1=O
MIC80 (Aspergillus flavus): 0.5 µg/mL (≈ 0.806 µM)
IC50 (Staphylococcus aureus [9]): 0.125 µg/mL (≈ 0.201 µM)
Activity (Escherichia coli [10]): Active
Activity (Staphylococcus aureus [11]): 10.5 log10CFU/ml
MIC (Staphylococcus aureus [1]): 8 µg/mL (≈ 12.9 µM)
Ratio (Micrococcus luteus [12]): 32
Ratio (Salmonella enterica [13]): 1025
Activity (Escherichia coli [14]): 3.6 log10CFU/ml
MIC [2]: 0.0312 µg/mL (≈ 0.0503 µM)
MIC80 (Saccharomyces cerevisiae): 1 µg/mL (≈ 1.61 µM)
Activity (Escherichia coli [15]): 7.2 log10CFU/ml
Ratio (Bacillus [16]): 16
MIC (Micrococcus luteus [3]): 0.0625 µg/mL (≈ 0.101 µM)
Activity (Staphylococcus aureus [17]): Active
MIC (Bacillus spizizenii): 4 µg/mL (≈ 6.45 µM)
MIC80 (Candida albicans): 0.5 µg/mL (≈ 0.806 µM)
Activity (Staphylococcus aureus [18]): 0.1 log10CFU/ml
Activity (Staphylococcus aureus [19]): 5 log10CFU/ml
K (Calf thymus DNA): 4.3 ×10⁴ L/mol
MIC (Escherichia coli [4]): 0.125 µg/mL (≈ 0.201 µM)
Ratio (Salmonella enterica [20]): 8
MIC (Salmonella enterica [6]): 0.0312 µg/mL (≈ 0.0503 µM)
Activity (Staphylococcus aureus [21]): 3 log10CFU/ml
EC50 (Staphylococcus aureus [22]): 0.76 µg/mL (≈ 1.22 µM)
EC50 (Escherichia coli [23]): 1.5 µg/mL (≈ 2.42 µM)
Ratio (Bacillus [24]): 1025
IC50 (HEK293): 106 µg/mL (≈ 171 µM)
MIC (Staphylococcus aureus [7]): 0.125 µg/mL (≈ 0.201 µM)
Ratio (Salmonella enterica [25]): 32
Activity (Escherichia coli [26]): 12.2 log10CFU/ml
MIC (Pseudomonas aeruginosa): 0.5 µg/mL (≈ 0.806 µM)
MIC80 [27]: 0.25 µg/mL (≈ 0.403 µM)
IC50 (Escherichia coli [28]): 0.25 µg/mL (≈ 0.403 µM)
Activity (Escherichia coli [29]): 10.1 log10CFU/ml
Ratio (Micrococcus luteus [30]): 8
MIC (Shigella dysenteriae): 1 µg/mL (≈ 1.61 µM)
Ratio (Micrococcus luteus [31]): 128
MIC (Escherichia coli [8]): 1 µg/mL (≈ 1.61 µM)
MIC80 (Cyberlindnera jadinii): 0.125 µg/mL (≈ 0.201 µM)
MIC (Staphylococcus aureus [32]): 0.125 µg/mL (≈ 0.201 µM)
Activity (Staphylococcus aureus [33]): 9.6 log10CFU/ml
inhibition (Escherichia coli [34]): Active
Ratio (Micrococcus luteus [35]): 32

O=C(O)c1cn(C2CC2)c2cc(N3CCN(Cc4nc5ccccc5n4Cc4ccc(F)cc4)CC3)c(F)cc2c1=O
MIC80 (Aspergillus flavus): 8 µg/mL (≈ 14 µM)
MIC (Staphylococcus aureus [1]): 16 µg/mL (≈ 28.1 µM)
MIC [2]: 16 µg/mL (≈ 28.1 µM)
MIC80 (Saccharomyces cerevisiae): 16 µg/mL (≈ 28.1 µM)
MIC (Micrococcus luteus [3]): 16 µg/mL (≈ 28.1 µM)
MIC (Bacillus spizizenii): 8 µg/mL (≈ 14 µM)
MIC80 (Candida albicans): 8 µg/mL (≈ 14 µM)
MIC (Escherichia coli [4]): 32 µg/mL (≈ 56.2 µM)
MIC (Salmonella enterica [6]): 16 µg/mL (≈ 28.1 µM)
MIC (Staphylococcus aureus [7]): 4 µg/mL (≈ 7.02 µM)
MIC (Pseudomonas aeruginosa): 8 µg/mL (≈ 14 µM)
MIC80 [27]: 16 µg/mL (≈ 28.1 µM)
MIC (Shigella dysenteriae): 16 µg/mL (≈ 28.1 µM)
MIC (Escherichia coli [8]): 16 µg/mL (≈ 28.1 µM)
MIC80 (Cyberlindnera jadinii): 8 µg/mL (≈ 14 µM)

O=C(O)c1cn(C2CC2)c2cc(N3CCN(Cc4nc5ccccc5n4Cc4ccc([N+](=O)[O-])cc4)CC3)c(F)cc2c1=O
MIC80 (Aspergillus flavus): 1 µg/mL (≈ 1.68 µM)
MIC (Staphylococcus aureus [1]): 4 µg/mL (≈ 6.7 µM)
MIC [2]: 8 µg/mL (≈ 13.4 µM)
MIC80 (Saccharomyces cerevisiae): 1 µg/mL (≈ 1.68 µM)
MIC (Micrococcus luteus [3]): 8 µg/mL (≈ 13.4 µM)
MIC (Bacillus spizizenii): 4 µg/mL (≈ 6.7 µM)
MIC80 (Candida albicans): 2 µg/mL (≈ 3.35 µM)
MIC (Escherichia coli [4]): 16 µg/mL (≈ 26.8 µM)
MIC (Salmonella enterica [6]): 16 µg/mL (≈ 26.8 µM)
MIC (Staphylococcus aureus [7]): 2 µg/mL (≈ 3.35 µM)
MIC (Pseudomonas aeruginosa): 4 µg/mL (≈ 6.7 µM)
MIC80 [27]: 4 µg/mL (≈ 6.7 µM)
MIC (Shigella dysenteriae): 8 µg/mL (≈ 13.4 µM)
MIC (Escherichia coli [8]): 8 µg/mL (≈ 13.4 µM)
MIC80 (Cyberlindnera jadinii): 2 µg/mL (≈ 3.35 µM)

CCCn1c(CN2CCN(c3cc4c(cc3F)c(=O)c(C(=O)O)cn4CC)CC2)nc2ccccc21
MIC80 (Aspergillus flavus): 32 µg/mL (≈ 65.1 µM)
MIC (Staphylococcus aureus [1]): 256 µg/mL (≈ 521 µM)
MIC [2]: 128 µg/mL (≈ 260 µM)
MIC80 (Saccharomyces cerevisiae): 32 µg/mL (≈ 65.1 µM)
MIC (Micrococcus luteus [3]): 8 µg/mL (≈ 16.3 µM)
MIC (Bacillus spizizenii): 2 µg/mL (≈ 4.07 µM)
MIC80 (Candida albicans): 32 µg/mL (≈ 65.1 µM)
MIC (Escherichia coli [4]): 32 µg/mL (≈ 65.1 µM)
MIC (Salmonella enterica [6]): 16 µg/mL (≈ 32.5 µM)
MIC (Staphylococcus aureus [7]): 16 µg/mL (≈ 32.5 µM)
MIC (Pseudomonas aeruginosa): 32 µg/mL (≈ 65.1 µM)
MIC80 [27]: 2 µg/mL (≈ 4.07 µM)
MIC (Shigella dysenteriae): 32 µg/mL (≈ 65.1 µM)
MIC (Escherichia coli [8]): 128 µg/mL (≈ 260 µM)
MIC80 (Cyberlindnera jadinii): 32 µg/mL (≈ 65.1 µM)
